The numbers were not newly measured in publication PMC4366302 (Organic & biomolecular chemistry, 2015), which cites them from elsewhere.

The conditions of this data set: known inherent solubilities.

Turning to `O=C(NC1=CC(=O)[C@H]2O[C@H]2[C@H]1O)c1cc2ccccc2[nH]c1=O` [PBS-1086], the “S0 (inherent solubility of drug)” value was 4.5 ± 0.90 µM. Regarding `O=C1Cc2cc(CCN3CCN(c4nsc5ccccc45)CC3)c(Cl)cc2N1` [Ziprasidone, ziprasidone], the “S0 (inherent solubility of drug)” value was 63 ± 3.5 µM.
